The text below walks through data of patent US20120225019A1, “Dual Fluorescence Assay For Determining Viability Of Parasitic Or Non-Parasitic Worms” (priority 2009, published 2012).

Test [1] deals with Schistosoma mansoni schistosomula. Briefly: microscopic examination of compound-treated schistosomula. The class given is cell-based. As to conditions: 24 hr. The protocol: Live and heat killed schistosomula stained with optimal concentrations (empirically derived from Jones K, Senft J (1985) An improved method to determine cell viability by simultaneous staining with fluorescein diacetate-propidium iodide. The Journal of Histochemistry and Cytochemistry 33: 77-79) of propidium iodide (PI, 2.0 μg/ml; Sigma-Aldrich), fluorescein diacetate (FDA, 0.5 μg/ml; Sigma-Aldrich) or both fluorophores were visualized at ×100 magnification using a Leica Axioplan microscope equipped with FITC (494 excitation) and Rhodamine (536 excitation) filters and a mercury vapor light source. A Hamamatsu CA74295 camera with Wasabi Version 1.4 software was used to capture photographic images of stained schistosomula.
Schistosomula, co-incubated with test compounds, were fluorescently visualized as above or unstained at ×100 magnification using an Olympus CK2 inverted microscope equipped with a stage extension plate and specimen holder for handling microtiter plates. A Kodak EasyShare DX7440 digital camera was used to capture images of unstained schistosomula.

Test [2] has the same test system. Put plainly: dual-fluorescence (PI/FDA) schistosomula viability assay. The format is cell-based.
Test [3] relates to in vitro cultured, mechanically-transformed schistosomula. As to conditions: 10 μM, 24 hr after treatment; cited from earlier work.
Test [4] concerns Haemonchus contortus L3 larvae. Put plainly: Haemonchus contortus FTIR. The class given is cell-based. The following applies: worm samples; 3 mg/ml in DMSO added at 1/100; 24 hours at 37° C. On the procedure: 1. Haemonchus contortus L3 larvae were exsheated in 5% sodium hypochlorite for 10 minutes.
2. Following exsheathment the larvae were pelleted by centrifugation at 200×g for 2 minutes, the supernatant was removed and replaced with 1×PBS. This wash step was repeated twice to remove any traces of sodium hypochlorite then resuspended in DMEM containing L-glutamine and pen-strep but lacking in phenol red.
3. The larvae were aliquoted into a 384 well plate at approx. 100 larvae per well.
4. Compounds to be tested (aldicarb, levamisole and ivermectin) were made up at 3 mg/ml in DMSO then added to test wells at 1/100.
5. An identical quantity of DMSO, lacking any compound, was added to control wells.
6. The larvae were cultured for 24 hours at 37° C. following the addition of compounds (see FIG. 11). Wells containing media and compounds, but lacking in larvae, were also set up as controls for background.
For FTIR, two samples were run from each well containing larvae. The first consisted of 10 μl of supernatant taken from the top of the well without any disturbance. The second consisted of 10 μl containing worms and any sediment stirred up from the bottom of the well. A third 10 μl sample of media containing compounds but no larvae was also run for elimination of drug chemistry. Samples were dried at 50° C. for 45 minutes to prevent interference from water before being loaded into the FTIR machine.
Collected spectra were analysed using PyChem software. Two analyses were run for all data: principle components analysis (PCA; which compresses all of the data into smaller, discreet (2) components without there being any assumptions made) and discriminate function analysis (DFA; which takes information provided about class structure to run an algorithm to maximise distances between groups (different drug treatments) and minimise distances within groups (replicates of the same drug treatment)). The circles on the DFA graphs represent mean group centres i.e. treatments that segregate with confidence intervals of 95% (inner circle) and 99% (outer circle).

The test system of test [5] is Schistosoma mansoni schistosomula. Briefly: dual-fluorescence (PI/FDA) schistosomula viability assay. The class given is cell-based. The following applies: 10 μM, 24 hr. On the procedure:
Schistosoma mansoni (Puerto Rican strain) infected Biomphalaria glabrata snails were provided by Fred Lewis (Biomedical Research Institute, Rockville, Md., USA). Cercariae were shed from infected snails by exposure to light (60 min at room temperature, RT) and subsequently converted to schistosomula by mechanical transformation (Colley D G, Wikel S K (1974) Schistosoma mansoni: simplified method for the production of schistosomules. Experimental Parasitology 35: 44-51). Schistosomula were purified away from cercarial tails by centrifugation through a 60% percoll gradient (Lazdins J K, Stein M J, David J R, Sher A (1982) Schistosoma mansoni: rapid isolation and purification of schistosomula of different developmental stages by centrifugation on discontinuous density gradients of Percoli. Experimental Parasitology 53: 39).
Microscope examination was used to assess the quantity and quality of purified schistosomula. Schistosomula were cultured at 37° C. in T25 tissue culture flasks containing 9 ml DMEM (Dulbecco's Modified Eagle Medium, Sigma-Aldrich), lacking phenol red but containing 4500 mg/I glucose, supplemented with 10% foetal calf serum, 2 mM L-glutamine, 200 U/ml penicillin, 200 μg/ml streptomycin (all Sigma-Aldrich) in an atmosphere of 5% CO2 for 24 hr before any further experimental manipulations proceeded. Negligible parasite death occurred in this media during the 24 hr culturing period. Following this, schistosomula were aliquoted into black-sided, flat-bottom (optically clear), 96-well microtiter plates (Fisher Scientific) in 200 μl media or black-sided, flat-bottom (optically clear), 384-well microtiter plates (Matrix) in 40 μl media.
Stock solutions of all compounds were made up at 1 mM in appropriate solvents and stored at −80° C. All compounds were added to black-sided, flat-bottom (optically clear), 96-well microtiter plates containing schistosomula (1000 parasites/well in triplicate) at 10 μM concentrations. Schistosomula were cultured (as already indicated; 37° C., 5% CO2) in the presence of each compound for 24 hr before viability levels were assessed.
After the 24 hr culturing period in the presence of test compounds, and prior to addition of fluorescent dyes, all schistosomula were washed three times to remove test compound and culture media supplements. Each wash consisted of centrifuging microtiter plates containing schistosomula at 100×g for 5 min, removal of half the old culture media and replacement with an equal quantity of fresh DMEM (lacking phenol red). After washing the parasites, […] and FDA were simultaneously added to each well of the microtiter plate to obtain a final concentration of 2.0 μg/ml and 0.5 μg/ml respectively.
The 96-well microtiter plates, now containing fluorescently labeled parasites, were subsequently loaded into a BMG Labtech Polarstar Omega plate reader containing appropriate filters for the simultaneous detection of PI (544 nm excitation/620 nm emission) and FDA (485 nm excitation/520 nm emission). All fluorescent values were obtained with the plate reader incubator set at 37° C. to ensure efficient esterase conversion of FDA to fluorescein within live schistosomula. The plate reader automatically sets the photo multiplier tube (PMT) gain for each fluorescent dye and this may slightly vary between experiments. Inclusion of appropriate control samples (live and dead schistosomula) compensates for any inter-plate variations in gain settings.
All data were exported into Microsoft Excel for organization and into Minitab (Version 14) for statistical analyses. A One-Way Analysis of Variance (ANOVA) followed by post hoc testing with Fisher's least significant difference (LSD) was used to detect statistical differences between treatments. […].
Numbers of live and dead schistosomula in each well of a microtiter plate were calculated using the following equations: […]

Another test concerns schistosomula. The following applies: previously published activities; cited from earlier work.

“Also recorded” adds a separate entry of the source. Structures can show the parent of a compound that is named as a salt.

For the molecule `CC(=O)OC[C@H]1O[C@@H]([S-])[C@H](OC(C)=O)[C@@H](OC(C)=O)[C@@H]1OC(C)=O.CCP(CC)CC.[Au+]` [auranofin], in test [1] (1 μM auranofin), the “PI/FDA staining of schistosomula by epifluorescent microscopy” value was “displayed cells that were stained with either PI or FDA throughout the body”. In addition, in test [1] (10 μM), the “death confirmed by microscopic examination of schistosomula” value stood at 100%. For the same molecule, the “auranofin-mediated mortality compared to vehicle treated (DMSO) or untreated parasites” value in test [2] (5 μM, 2.5 μM and 1.25 μM, 24 hr) is reported as “Statistically-significant”. Also, the “anti-schistosomula effect (viability per drug concentration)” value in test [2] (24 hours post-treatment) was “clear and titratable anti-schistosomula effect”. Besides, in test [2] (auranofin titration series, fluorescent-based microtiter plate quantification, 24 hr), the “anti-schistosomula LD50 activity” value was found to be 0.82 µM. Moreover, the “lethality to schistosomula estimated by light microscopy” value in test [3] was 100%.
Regarding `c1ccc([C@H]2CN3CCSC3=N2)cc1` [levamisole], the “FTIR separation of treatment from DMSO control, worms” value (“FTIR separation of treatment” for short) in test [4] is “good separation”.
Take `Nc1[nH]c(=O)ncc1F` [flucytosine]: in test [5], the “schistosomula viability by dual-fluorescent viability assay” value (shortened to “schistosomula viability”) is listed as “none showed strong decreases in viability”.
In the case of ivermectin, the “FTIR separation of treatment” value in test [4] is listed as “good separation”.
On to `CN(C)CCCN1c2ccccc2Sc2ccc(Cl)cc21` [chlorpromazine hydrochloride], for which the “schistosomula viability” value in test [5] is listed as “did not affect schistosomula viability”. In the test with schistosomula, the “previously described effect on schistosomula phenotype” value (“previously described effect” below) was “induce schistosomula over-activity”.
Take `O=C(Nc1ccc([N+](=O)[O-])cc1Cl)c1cc(Cl)ccc1O` [niclosamide]: in test [5], the “schistosomula viability” value is on record as “fluorescent viability measurements similar to those derived from untreated parasites”. In the test with schistosomula, the “previously described effect” value is on record as “induce schistosomula mortality”.
For the molecule `CC[C@]1(O)C[C@@H]2CN(CCc3c([nH]c4ccccc34)[C@@](C(=O)OC)(c3cc4c(cc3OC)N(C)[C@H]3[C@@](O)(C(=O)OC)[C@H](OC(C)=O)[C@]5(CC)C=CCN6CC[C@]43[C@@H]65)C2)C1` [vinblastine], the “schistosomula viability” value in test [5] is listed as “none showed strong decreases in viability”.
Same read-out and setting: as for `C[C@@](Cc1ccc(O)c(O)c1)(NN)C(=O)O` [carbidopa], the entry is “none showed strong decreases in viability”.
Still for that read-out and setting: as for `CC(C)COCC(CN(Cc1ccccc1)c1ccccc1)N1CCCC1` (stereo not shown) [bepridil], the entry is “none showed strong decreases in viability”.
As for `CNC(=O)O/N=C/C(C)(C)SC` [aldicarb], the “FTIR separation of treatment” value in test [4] was “good separation”.
As to `O=C(C1CCCCC1)N1CC(=O)N2CCc3ccccc3C2C1` (stereo not shown) [praziquantel], the “schistosomula viability” value in test [5] is on record as “did not affect schistosomula viability; also recorded: does not kill in vitro”. Further, in test [1] (10 μM), the “schistosomula phenotype by microscopic examination” value is reported as “strong rounded phenotype”. Moreover, the “previously described effect” value in the test with schistosomula is on record as “shape alteration (‘rounded’ phenotype)”.
Regarding `COC(=O)[C@H]1[C@H]2C[C@@H]3c4[nH]c5cc(OC)ccc5c4CCN3C[C@H]2C[C@@H](OC(=O)/C=C/c2cc(OC)c(OC)c(OC)c2)[C@@H]1OC` [rescinnamine], the “schistosomula viability” value in test [5] is reported as “none showed strong decreases in viability”.
Turning to `Clc1ccc(COC(Cn2ccnc2)c2ccc(Cl)cc2Cl)c(Cl)c1` (stereo not shown) [miconazole nitrate], the “schistosomula viability” value in test [5] is listed as “did not affect schistosomula viability”. For the same molecule, the “previously described effect” value in the test on schistosomula is recorded as “shape alteration (‘rounded’ phenotype)”.
As to `CC[C@@H](C(=O)[C@@H](C)[C@@H](O)[C@H](C)[C@@H]1O[C@@H]([C@@H](CC)C(=O)O)CC[C@@H]1C)[C@H]1O[C@]2(C=C[C@@H](O)[C@]3(CC[C@@](C)([C@H]4CC[C@](O)(CC)[C@H](C)O4)O3)O2)[C@H](C)C[C@@H]1C` [sodium salinomycin], the “schistosomula viability” value in test [5] is on record as “fluorescent viability measurements similar to those derived from untreated parasites”. The “schistosomula phenotype by microscopic examination” value in test [1] (10 μM) was “strongly FDA positive (with some PI positive cells) (FIG. 6C), dark and granular (FIG. 6H), but motile”. Further, the “previously described effect” value in the test with schistosomula is on record as “induce schistosomula mortality”.
Turning to `CC(C)=CCC[C@]1(C)C=Cc2c(O)c3c(c(CC=C(C)C)c2O1)O[C@]12C(=C[C@@H]4C[C@H]1C(C)(C)O[C@@]2(C/C=C(/C)C(=O)O)C4=O)C3=O` [gambogic acid], the “schistosomula viability” value in test [5] is given as “induced measurable death”. For the same molecule, the “previously described effect” value in the test on schistosomula is listed as “induce schistosomula mortality”.
Consider `C[C@@H]1[C@H](O)[C@@H](C)/C=C/C=C/C=C/C=C/C=C/C=C/C=C/[C@H](O[C@@H]2O[C@H](C)[C@@H](O)[C@H](N)[C@@H]2O)C[C@@H]2O[C@](O)(C[C@@H](O)C[C@@H](O)[C@H](O)CC[C@@H](O)C[C@@H](O)CC(=O)O[C@H]1C)C[C@H](O)[C@H]2C(=O)O` [amphotericin b], for which the “schistosomula viability” value in test [5] is given as “induced measurable death”. Moreover, the “previously described effect” value with schistosomula was “induce schistosomula mortality”.
On to `Cc1cc(C2CCCCC2)n(O)c(=O)c1` [ciclopirox], for which the “schistosomula viability” value in test [5] is on record as “none showed strong decreases in viability”. Further, the “schistosomula phenotype by microscopic examination” value in test [1] (10 μM) is given as “shape alterations in schistosomula phenotype”.
On to `CNCCC(Oc1ccc(C(F)(F)F)cc1)c1ccccc1` (stereo not shown) [fluoxetine hydrochloride], for which the “schistosomula viability” value in test [5] was “did not affect schistosomula viability”. The “previously described effect” value in the test with schistosomula is “induce schistosomula over-activity”.
